Experimental data published in PubChem BioAssay (NCI).
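Where inhibition never reached the appropriate level, the endpoint shown equals the highest concentration tested. Otherwise, values were interpolated linearly from a five-concentration, 48-hour dose response in 96-well plates. TGI: total growth inhibition.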

Columns and labels:
Assay in all cases: NCI anticancer screen, dose series, 48 h
NCI-H23 lung = system: NCI-H23 lung
SW-620 colon = system: SW-620 colon
SF-268 CNS = system: SF-268 CNS
HOP-92 NSCLC = system: HOP-92 NSCLC
MOLT-4 leukemia = system: MOLT-4 leukemia
U251 CNS = system: U251 CNS
CCRF-CEM leukemia = system: CCRF-CEM leukemia
786-0 renal = system: 786-0 renal
TK-10 renal = system: TK-10 renal
MDA-MB-435 = system: MDA-MB-435
CAKI-1 renal = system: CAKI-1 renal

| SMILES | TGI (NCI-H23 lung) | TGI (SW-620 colon) | TGI (SF-268 CNS) | TGI (HOP-92 NSCLC) | TGI (MOLT-4 leukemia) | TGI (U251 CNS) | TGI (CCRF-CEM leukemia) | TGI (786-0 renal) | TGI (TK-10 renal) | TGI (MDA-MB-435) | TGI (CAKI-1 renal) |
| --- | --- | --- | --- | --- | --- | --- | --- | --- | --- | --- | --- |
| O=c1[nH]c(NCCCCCO)nc2nc[nH]c12 | > 100 µM | > 100 µM | > 100 µM | > 100 µM | > 100 µM | > 100 µM | > 100 µM | > 100 µM | > 100 µM | > 100 µM | > 100 µM |
| CC1=NN(C(=O)CC(=O)Nc2cccc(C)c2)C(=O)C1N=Nc1ccc(C(=O)O)cc1 (centres undefined) | > 100 µM | > 100 µM | > 100 µM | > 100 µM |  | > 100 µM | > 100 µM | > 100 µM | > 100 µM | > 100 µM | > 100 µM |
| N=C(N)c1ccc(N=Nc2c(O)c(C(=O)Nc3ccccc3)cc3ccccc23)cc1 | 76.1 µM | > 100 µM | 55.4 µM | 33.8 µM | 8.33 µM | > 63.1 µM | 5.92 µM | 30.2 µM | > 68 µM | > 100 µM | > 100 µM |
| N#Cc1cc2c(n(C3OC(CO)C(O)C(O)C3O)c1=S)CCC2 (centres undefined) | > 100 µM |  | > 100 µM | > 100 µM | > 100 µM | > 100 µM | > 100 µM | > 100 µM | > 100 µM | > 100 µM | > 100 µM |
| CC1=NN(c2cc(Cl)c(S(=O)(=O)O)cc2Cl)C2(C1)C(Cl)C(=O)N2c1nc2ccccc2s1 (centres undefined) | > 100 µM | > 100 µM | > 100 µM | > 100 µM | > 100 µM | > 100 µM | > 100 µM | > 100 µM | > 100 µM | > 100 µM | > 100 µM |
| Clc1ccc(-c2nn3c(COc4ccc(OCc5nnc6sc(-c7ccc(Cl)cc7)nn56)c(Cl)c4)nnc3s2)cc1 | 62.3 µM | 74.1 µM | 35.6 µM | 37.8 µM | > 100 µM | 54.7 µM |  | 26.6 µM | 45.7 µM | > 100 µM | 75.1 µM |
| C/C(=C\C(=O)O)C(=O)N(C)c1ccccc1I | > 100 µM | > 100 µM | > 100 µM | > 100 µM | > 100 µM | > 100 µM | > 100 µM | > 100 µM |  | > 100 µM | > 100 µM |
| CN(C)CCCNC(=O)N/N=C/c1ccccn1 |  | > 10 µM | > 10 µM | > 10 µM | > 10 µM |  | > 10 µM |  | > 10 µM |  |  |
| COc1cc2ccc(C(C)NCC#N)cc2cc1OC (centres undefined) |  | > 100 µM | > 100 µM | > 100 µM | > 100 µM | > 100 µM |  | > 100 µM | > 100 µM | > 100 µM | > 100 µM |
| Fc1cccc(C2ON=C(c3ccccc3)N2C23CC4CC(CC(C4)C2)C3)c1 (centres undefined) | > 10 µM | > 10 µM | > 10 µM | > 10 µM | > 10 µM | > 10 µM |  | > 10 µM | > 10 µM | > 10 µM | > 10 µM |
| Cc1cc(C)n(C(=CC(=O)C(Cl)Cl)n2nc(C)cc2C)n1 | 13.2 µM | 40.6 µM | > 100 µM | 24.2 µM | 0.806 µM | 20.4 µM | 4.46 µM | 10 µM | 15.1 µM | 11 µM | 19.1 µM |
| FC(F)(Sc1ncccn1)c1nc2ccccc2o1 | > 100 µM | > 100 µM | > 100 µM | > 100 µM | > 100 µM | > 100 µM | > 100 µM | > 100 µM | > 100 µM | > 100 µM | > 100 µM |
| CC1(O)CC23CC(O)C4(O)C(CC(O)C4(C)C)C(C)(O)C2CCC1C3O (centres undefined) | > 100 µM | > 100 µM | > 100 µM | > 100 µM | > 100 µM | > 100 µM | > 100 µM | > 100 µM | > 100 µM | > 100 µM | > 100 µM |
| COc1cc(-c2cc(OC)c(OC)c3ccc(Br)cc23)c2cc(Br)ccc2c1OC | 45 µM | > 100 µM | 50.8 µM | 40.3 µM | > 100 µM | 37.7 µM |  | 34.2 µM | 52.7 µM | 46.1 µM | > 100 µM |
| Cc1c(-c2ccccc2)oc(=O)c2ccccc12 | 56.6 µM |  | 45.1 µM | 38 µM | 60.1 µM | 42.2 µM | 48.2 µM | 51.2 µM | 60.7 µM | 34.6 µM | 53.9 µM |
| O=c1c2ccccc2n2nnc3ccc(NCCNCCO)c1c32 | 8.85 µM | 6.44 µM | 6.46 µM | 6.18 µM | 9.64 µM | 6.73 µM | 14.9 µM | 11.5 µM | 9.4 µM | 10.8 µM | 10 µM |
| N#CC(C#N)=C/C=C/c1ccccc1[N+](=O)[O-] | > 10 µM | > 10 µM | > 10 µM | > 10 µM | > 10 µM | > 10 µM | > 10 µM | > 10 µM | > 10 µM |  | > 10 µM |
| COc1ccccc1-c1cc(=O)c2cccnc2[nH]1 | > 100 µM | > 100 µM | > 100 µM | 60.2 µM | > 100 µM | > 100 µM | > 100 µM | > 100 µM | > 100 µM | 60.5 µM | > 100 µM |
| CSC1=C(C)C(/C=N/Nc2ccc([N+](=O)[O-])cc2)=C(C)N(c2ccccc2)S1(=O)=O | > 100 µM | > 100 µM | > 100 µM | > 100 µM | > 100 µM | > 100 µM | > 100 µM | > 100 µM | > 100 µM | > 100 µM | > 100 µM |
| Nc1ncnc2c1ncn2C1C(O)C=C(CO)C1O (centres undefined) |  | > 625 µM | > 625 µM | > 625 µM |  |  |  |  |  |  | > 625 µM |
| CCCCCCCCCCCCCCCCOC[C@H](COC(c1ccccc1)(c1ccccc1)c1ccccc1)O[P+](=S)OC (some centres undefined) | > 100 µM | > 100 µM | > 100 µM | > 100 µM | > 100 µM | > 100 µM | > 100 µM | > 100 µM | > 100 µM | > 100 µM | > 100 µM |
